Laboratory results from patent US7579344B2, “Pyrimidine derivatives possessing cell-cycle inhibitors activity” (Astrazeneca AB, priority 2003, dated 2009).

target: T1, CDK2/Cyclin E (Homo sapiens, UniProt P24941); experiment: in vitro kinase Scintillation Proximity Assay, incorporation of [γ-33-P]-ATP into GST-Rb; format: biochemical; conditions: GST-Rb substrate, 0.2 μM ATP, 60 minutes at room temperature
T1 construct: The open reading frames of CDK2 and Cyclin E were isolated; made in house; host or cells: Sf21 (Spodoptera frugiperda) insect cells, baculovirus co-infection; the GST-Rb substrate was made in E. coli BL21 (DE3) pLysS
Procedure: The compounds were tested in an in vitro kinase assay in 96 well format using Scintillation Proximity Assay (SPA - obtained from Amersham) for measuring incorporation of [γ-33-P]-Adenosine Triphosphate into a test substrate (GST-Retinoblastoma protein; GST-Rb). In each well was placed the compound to be tested (diluted in DMSO and water to correct concentrations) and in control wells either roscovitine as an inhibitor control or DMSO as a positive control.
Approximately 0.2 μl of CDK2/Cyclin E partially-purified enzyme (amount dependent on enzyme activity) diluted in 25 μl incubation buffer was added to each well then 20 μl of GST-Rb/ATP/ATP33 mixture (containing 0.5 μg GST-Rb and 0.2 μM ATP and 0.14 μCi [γ-33-P]-Adenosine Triphosphate in incubation buffer), and the resulting mixture shaken gently, then incubated at room temperature for 60 minutes.
To each well was then added 150 μL stop solution containing (0.8 mg/well of Protein A-PVT SPA bead (Amersham)), 20 pM/well of Anti-Glutathione Transferase, Rabbit IgG (obtained from Molecular Probes), 61 mM EDTA and 50 mM HEPES pH 7.5 containing 0.05% sodium azide.
The plates were sealed with Topseal-S plate sealers, left for two hours then spun at 2500 rpm, 1124 xg., for 5 minutes. The plates were read on a Topcount for 30 seconds per well.
The incubation buffer used to dilute the enzyme and substrate mixes contained 50 mM HEPES pH7.5, 10 mM MnCl2, 1 mM DTT, 100 μM Sodium vanadate, 100 μM NaF, 10 mM Sodium Glycerophosphate, BSA (1 mg/ml final).
In this assay only part of the retinoblastoma protein (Science 1987 Mar. 13;235(4794):1394-1399; Lee W. H., Bookstein R., Hong F., Young L. J., Shew J. Y., Lee E. Y.) was used, fused to a GST tag. […]
The open reading frames of CDK2 and Cyclin E were isolated by reverse transcriptase-PCR using HeLa cell and activated T cell mRNA as a template and cloned into the insect expression vector pVL1393 (obtained from Invitrogen 1995 catalogue number: V1392-20). […]

SMILES | IC50
c1ccc(Nc2nccc(-c3cnc4n3CCCC4)n2)cc1 [Example 2, 2-anilino-4-(5,6,7,8-tetrahydroimidazo[1,2-a]pyridin-3-yl)pyrimidine] | 21 nM
c1ccc(Nc2nccc(-c3cnc4n3CCOC4)n2)cc1 [Example 5, 2-Anilino-4-(5,6-dihydro-8H-imidazo[2,1-c][1,4]oxazin-3-yl)pyrimidine] | 42 nM
COCCNS(=O)(=O)c1ccc(Nc2nccc(-c3cnc4n3CCOC4)n2)cc1 [Example 9] | 13 nM
